Source: US20210292306A1, “NOVEL INDOLE DERIVATIVE AND ANTI-CANCER CONPOSITION CONTAINING SAME” (KOREA RESEARCH INSTITUTE OF BIOSCIENCE AND BIOTECHNOLOGY, priority 2016, published 2021)

How the values were obtained:
MCF7/ADR = test: Anti-proliferative activity in cancer cells showing multiple drug resistance (MTT assay); type: cell-based
Method: (§1) HeLa cells (ATCC, USA), which are a human cervical cancer cell line, were dispensed into a 96-well plate at 2×10^3 cells/well, and the cells were treated with DMSO or the indole derivatives of the present invention, and then allowed to grow for 4 days. And then, MTT (3-(4,5-Dimethylthiazol-2-yl)-2,5-diphenyltetrazolium bromide) reagent was added to the wells at 10 μl/well. After 2 hours, the absorbance was measured at “OD 450” and statistical values were obtained using the plizm6 program. The data represent mean values of the results of two repeated assays (Table 1). Specifically, K562 and MCF7 (Bio Evaluation Center, Korea Research Institute of Bioscience and Biotechnology, Korea), and K562/ADR and MCF7/ADR (Bio Evaluation Center, Korea Research Institute of Bioscience and Biotechnology, Korea), which are multiple drug-resistant cell lines of the above mentioned cell lines, respectively, were cultured on a microtiter plate at 1-3×10^3 cells/well.

K562/ADR = test: as above; type: cell-based
Method: as §1

A431 = test: Effect on cell cycle progression (propidium iodine, FACS); type: cell-based, human; details: A431, 17 hours
Method: (§2) Several cancer cell lines were cultured on a 12 well plate (3×10^4 cells/well), and treated with DMSO or WCI-1031, an indole derivative of the present invention, for 17 hours, and then added with a propidium iodine dye to stain the cellular DNA, and subjected to measurement using FACS. The concentrations at which cells gathered in the G2/M phase and numbers of the cells represented as percentages were shown (Table 5).

HeLa = test: as above; type: cell-based, human; details: 17 hours
Method: as §2

K562 [1] = test: Anti-proliferative activity, multiple drug resistance study (MTT assay), parent line; type: cell-based; details: Homo sapiens, 96 h, 4 days, mean of three assays
Method: as §1

MCF7 [2] = test: as above; type: cell-based; details: Homo sapiens, 96 h, 4 days, mean of three assays
Method: as §1

[3] = system: Several cancer cell lines; test: Effect on cell cycle progression, summary over the cell lines of Table 5; type: cell-based; details: summary over the cell lines of Table 5, 17 hours
Method: as §2

Hep3B = test: Effect on cell cycle progression (propidium iodine, FACS); type: cell-based; details: 17 hours
Method: as §2

A172 = test: as above; type: cell-based; details: A172, 17 hours
Method: as §2

PC3 = test: as above; type: cell-based; details: PC3, 17 hours
Method: as §2

NCIH-125 = test: as above; type: cell-based; details: NCIH-125, 17 hours
Method: as §2

MCF7 ADR = test: as above; type: cell-based; details: 17 hours
Method: as §2

EL4 = test: as above; type: cell-based; details: EL4, 17 hours
Method: as §2

K562 [4] = test: as above; type: cell-based; details: K562, 17 hours
Method: as §2

MCF7 [5] = test: as above; type: cell-based; details: MCF7, 17 hours
Method: as §2

IC50 (MCF7/ADR; Homo sapiens, NCI/ADR-RES, 96 h, MCF7/ADR multiple drug-resistant line, 4 days, MTT, mean of three assays): 481 nM
IC50 (K562/ADR; Homo sapiens, 96 h, K562/ADR multiple drug-resistant line, 4 days, MTT, mean of three assays): 318 nM
IC50 (K562 [1]): 532 nM
IC50 (MCF7 [2]): 1320 nM
SMILES: COC(=O)Cn1c(C)c(/C=N/NC(=O)c2cc3c(ccc4ccccc43)o2)c2ccccc21 [WCI-1031, methyl (E)-2-(2-methyl-3-((2-(naphtho[2,1-b]furan-2-carbonyl) hydrazono)methyl)-1H-indole-1-yl)acetate]
Resistance factor (MCF7/ADR; ratio of IC50 MCF7/ADR to IC50 MCF7): 0.36
Resistance factor (K562/ADR; ratio of IC50 K562/ADR to IC50 K562): 0.60
effect μM (concentration at which cells gathered in the G2/M phase) (A431): 0.5 µM
% of G2/M (A431; at the effect concentration): 66.32%
effect μM (concentration at which cells gathered in the G2/M phase) (HeLa): 0.5 µM
% of G2/M (HeLa; at the effect concentration): 82.36%
numbers of the cells in the G2/M phase [3]: ≥ 50%
effect μM (concentration at which cells gathered in the G2/M phase) (Hep3B): 0.5 µM
% of G2/M (Hep3B; at the effect concentration): 68.13%
effect μM (concentration at which cells gathered in the G2/M phase) (A172): 1.0 µM
% of G2/M (A172; at the effect concentration): 70.10%
effect μM (concentration at which cells gathered in the G2/M phase) (PC3): 0.5 µM
% of G2/M (PC3; at the effect concentration): 65.35%
effect μM (concentration at which cells gathered in the G2/M phase) (NCIH-125): 1.0 µM
% of G2/M (NCIH-125; at the effect concentration): 48.10%
effect μM (concentration at which cells gathered in the G2/M phase) (MCF7 ADR): 0.5 µM
% of G2/M (MCF7 ADR; at the effect concentration): 52.37%
effect μM (concentration at which cells gathered in the G2/M phase) (EL4): 0.5 µM
% of G2/M (EL4; at the effect concentration): 50.84%
effect μM (concentration at which cells gathered in the G2/M phase) (K562 [4]): 0.5 µM
% of G2/M (K562 [4]; at the effect concentration): 76.72%
effect μM (concentration at which cells gathered in the G2/M phase) (MCF7 [5]): 0.5 µM
% of G2/M (MCF7 [5]; at the effect concentration): 59.08%
